Literature values, collected in US6110955A, “Metabolically stabilized oxyalkylene esters and uses thereof” (Beacon Laboratories, Inc., priority 1997, dated 2000).

Test system: primary and immortalized cell lines
Conditions: cited from earlier work

Row | Compound | expression of a reporter gene
1 | CCCC(=O)OCC(COC(=O)CCC)OC(=O)CCC [Tributyrin] | enhance the expression of a reporter gene in primary and immortalized cell lines

Test system: mitochondrial β-oxidation of fatty acids
Conditions: cited from earlier work

Row | Compound | mitochondrial β-oxidation of fatty acids
2 | O=C(O)CCCCCCNC1c2ccccc2CCc2ccccc21 [aminetepine] | decrease mitochondrial β-oxidation of fatty acids
3 | CC(C)Cc1ccc(C(C)C(=O)O)cc1 (stereo not shown) [ibuprofen] | decrease mitochondrial β-oxidation of fatty acids
4 | O=C(O)c1ccccc1O [salicylic acid] | decrease mitochondrial β-oxidation of fatty acids
5 | CN(C)C1C(=O)C(C(N)=O)=C(O)C2(O)C(=O)C3=C(O)c4c(O)cccc4C(C)(O)C3CC12 (stereo not shown) [tetracycline] | decrease mitochondrial β-oxidation of fatty acids
6 | CN1c2ccccc2C(NCCCCCCC(=O)O)c2ccc(Cl)cc2S1(=O)=O (stereo not shown) [tianeptine] | decrease mitochondrial β-oxidation of fatty acids
7 | CCCC(CCC)C(=O)O [valproic acid] | decrease mitochondrial β-oxidation of fatty acids
